From US20250134952A1, “METHODS FOR IMPROVING THE EFFICACY OF HDAC INHIBITOR THERAPY AND PREDICTING THE RESPONSE TO TREATMENT WITH HDAC INHIBITOR” (INSTITUT NATIONAL DE LA SANTÉ ET DE LA RECHERCHE MÉDICALE, priority 2021, published 2025) come the findings set out here.

Where only a bound is given, the exact number is not on record here.

The subject of assay [1] is MCF7shctrl and MCF7shTau subclones. Briefly: Cell death by staining and flow cytometric analysis (Zombie NIR). Particulars: 100 nM TSA, 48 hours. The class given is cell-based, human. How it is done: FIG. 1: Tau inhibition increases MCF7 breast cancer cell line sensitivity to TSA. (A) Tau protein expression in MCF7, MCF7shctrl and shTau were quantify by Elisa. (B) Effect of 100 nM TSA (48 h) on cell death in the MCF7shctrl and MCF7shTau subclones. Cell death was determined by staining and flow cytometric analysis as described in the materials and methods. (C) Effect of 100 nM TSA (48 h) on apoptosis in the MCF7shctrl and MCF7shTau subclones. Apoptosis was determined by flow cytometric analysis of the PI-positive and Annexin-V-positive cells as described in the materials and methods. (D) Cell cycle distribution was determined by FACS analysis of combined propidium iodide and EdU staining in MCF7shctrl and MCF7shTau in the absence or presence 100 nM TSA, 48 h. Data are mean±SD **P<0.01***P<0.001. […]
SH-SY5Y human neuroblastoma cells expressing Tau4R tagged with the streptavidin-binding peptide (SBP) (referred as SH-SY5Y-(SBP)Tau4R) (Chauderlier et al., 2018), SH-SY5Y-Tet-on-Tau4R, Hela cells, MCF7 and MDA-MB-231 were cultured in Dulbecco's Modified Eagle's Medium with 10% fetal bovine serum, 2 mM L-glutamine and 50 U/ml penicillin/streptomycin (Gibco) at 37° C. in 5% CO2 humidified air. […] For stable clones, luciferase activities were measured using the luciferase assay system (Promega) and normalized against protein concentration. […]
For orientation: A flow cytometer gives signals particle by particle.

The subject of the next assay is GADD45a. In words: GADD45a expression by real-time PCR. Conditions: 100 nM TSA, 24 h. The class given is cell-based, human. The protocol:
(A) Representative confocal sections of MCF7shctrl and shTau cells untreated or treated with 100 nM TSA for 24 h. […] (B) Quantification of HP1α clusters per nuclei visualized as described previously and realized on three independent experiments. (C) GADD45a and (D) p21 (CDKN1a) expression in MCF7shctrl and shTau cells untreated or treated with 100 nM TSA for 24 h were analyzed by real-time PCR and normalized to RPLO. Results are expressed, relative to the basal activity set to 1, as the mean±SD of three independent assays. (E) Tau tethering prevents adjacent reporter gene activity induced by TSA. GAL4UAS responsive luciferase reporter Hela stable cell line was transfected with GAL4DBD (GAL4) or GAL4DBD-Tau4R and then, 24 h later, treated with TSA (600 nM) for 24 h. The luciferase activity was determined as described in the Materials and Methods. (F) Ectopic Tau4R expression prevents adjacent reporter gene activity induced by TSA. […] The luciferase activity was determined as described in the Materials and Methods. […]
Total RNA was prepared using RNeasyMinikit (Qiagen). Reverse transcription (RT) was performed using random hexamers as recommended by the manufacturer (Applied Biosystems). cDNAs were analyzed by PCR amplification using the TaqMan PCR master mix (Applied Biosystems) and a mix of RPLO primers and probes. […]
(In general: Real-time PCR tracks product formation cycle by cycle.)

As to `CC(/C=C/C(=O)NO)=C\[C@@H](C)C(=O)c1ccc(N(C)C)cc1` [TSA, 2,4-Heptadienamide, 7-[4-(dimethylamino)phenyl]-N-hydroxy-4,6-dimethyl-7-oxo-, (2E,4E,6R)-], the figures for the “number of dead cells” value in assay [1] (Tau-knockdown cells (MCF7shTau)) and in assay [1] (sh-ctrl cells (MCF7shctrl)) were above 50% and 38%, respectively. In addition, the “GADD45a induction (RT-qPCR)” value with GADD45a (MCF7shctrl cells, relative to basal) was 3 fold. Further, the “GADD45a upregulation by TSA” value in the assay with GADD45a (cells with reduced Tau expression (MCF7shTau) vs MCF7shctrl) was “exacerbated”.
